The values that follow come from US20240252488A1 (KOREA RESEARCH INSTITUTE OF CHEMICAL TECHNOLOGY, priority 2020, published 2024).

For one experiment, the system named is FADD−/− Jurkat cells. Kind of experiment: Necroptosis inhibition assay, TNF-α-induced necroptosis (CellTiter-Glo 2.0). It is filed as cell-based, human. The conditions noted are these: TNF-α 15 ng/mL; for Necroptosis inhibition assay (Rescue %) 1 μM: compound 1 μM; for Necroptosis inhibition assay (Rescue %) 10 μM: compound 10 μM. Summed up: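 Cells at 5.0×10^5 cells/mL were pretreated with compound (final 0.1, 1 and 10 μM) for 30 minutes at room temperature, then given TNF-α at 15 ng/mL final. After 20 to 24 hours at 37° C, 5% CO2, viability was read as ATP luminescence to calculate cytotoxicity and necroptosis inhibition rate.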
(In general: ATP-based viability assays read luminescence as a measure of living cells.)

Experiment [1] has as its target T1, MLKL (Homo sapiens, UniProt Q8NB16).
T1 sequence (Q8NB16 1-471): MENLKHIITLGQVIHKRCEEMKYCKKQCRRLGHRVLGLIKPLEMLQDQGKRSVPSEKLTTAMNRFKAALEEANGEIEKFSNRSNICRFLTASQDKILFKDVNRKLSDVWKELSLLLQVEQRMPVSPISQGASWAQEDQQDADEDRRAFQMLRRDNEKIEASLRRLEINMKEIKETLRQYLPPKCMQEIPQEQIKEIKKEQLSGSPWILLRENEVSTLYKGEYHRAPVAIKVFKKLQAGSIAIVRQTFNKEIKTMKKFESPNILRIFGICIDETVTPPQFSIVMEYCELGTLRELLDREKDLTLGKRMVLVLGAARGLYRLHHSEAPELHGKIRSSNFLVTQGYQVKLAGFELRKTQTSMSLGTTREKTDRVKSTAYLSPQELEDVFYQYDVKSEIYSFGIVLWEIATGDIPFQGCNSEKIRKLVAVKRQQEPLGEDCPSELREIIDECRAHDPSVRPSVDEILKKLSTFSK
The experiment can be described thus: Measurement of binding affinity with MLKL receptor (competitive binding assay, Kd). Also noted: made in house; host or cells: HEK 293 cell line (T7 phage in E. coli BL21-derived host is also described). In outline: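 Competition binding of kinase tagged with DNA for qPCR detection, expressed in HEK 293 cells, against immobilized ligand on beads. Final DMSO 0.9%. Kd derived from kinase amount in eluates measured by qPCR.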

For experiment [2], the target named is T1, MLKL. The experiment can be described thus: MLKL degradation assay in HepG2 cell line (western blot). It is filed as cell-based. Also noted: endogenous in cells; host or cells: HepG2 or HaCaT. The conditions noted are these: cell line not given; for Degradation assay (Degradation %) 1 μM: compound 1 μM; for Degradation assay (Degradation %) 10 μM: compound 10 μM. In outline: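 HepG2 cells were exposed to compound at a final 1 or 10 μM for 20-24 hours at 37 °C, 5% CO2. RIPA lysates were normalized by BCA assay, 10-15 μg protein resolved by SDS-PAGE, and MLKL levels detected by western blot with chemiluminescence.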
(In general: In western blotting, separated proteins are transferred to a membrane and probed.)

Consider `COc1ccc(C(=O)N2CCC(C(=O)N3CCC(CN4CCC(n5cc(-c6cnc(N)c(C(=O)O[C@@H](C(=O)Nc7ccc(F)cc7)c7ccccc7)n6)cn5)CC4)CC3)CC2)cc1N1CCC(=O)NC1=O` [TDH-515, (R)-2-((4-fluorophenyl)amino)-2-oxo-1-phenylethyl 3-amino-6-(1-(1-((1-(1-(3-(2,4-dioxotetrahydropyrimidin-1(2H)-yl)-4-methoxybenzoyl)piperidine-4-carbonyl)piperidin-4-yl)methyl)piperidin-4-yl)-1H-pyrazol-4-yl)pyrazine-2-carboxylate], for which, in the experiment with FADD−/− Jurkat cells (FADD−/− Jurkat cells), the “Necroptosis inhibition assay (Rescue %) 1 μM” value is reported as 68.04% and the “Necroptosis inhibition assay (Rescue %) 10 μM” value is on record as 15.68%. Further, binding at MLKL [1] was put at a Kd of 1.4 nM. Also, at MLKL [2], the “Degradation assay (Degradation %) 1 μM” value is 95.21% and the “Degradation assay (Degradation %) 10 μM” value is listed as 89.06%.

For the compound `Nc1ncc(-c2cnn(C3CCN(C(=O)CCC4CCN(C(=O)C5CCN(c6ccc7c(c6)C(=O)N(C6CCC(=O)NC6=O)C7=O)CC5)CC4)CC3)c2)nc1C(=O)O[C@@H](C(=O)Nc1ccc(F)cc1)c1ccccc1` (stereo partly drawn) [TDH-418, (R)-2-((4-fluorophenyl)amino)-2-oxo-1-phenylethyl 3-amino-6-(1-(1-(3-(1-(1-(2-(2,6-dioxopiperidin-3-yl)-1,3-dioxoisoindolin-5-yl)piperidine-4-carbonyl)piperidin-4-yl)propanoyl)piperidin-4-yl)-1H-pyrazol-4-yl)pyrazine-2-carboxylate], in the experiment on FADD−/− Jurkat cells (FADD−/− Jurkat cells), the “Necroptosis inhibition assay (Rescue %) 1 μM” value was 28.11% and the “Necroptosis inhibition assay (Rescue %) 10 μM” value worked out at 17.31%. Besides, binding on MLKL [1] was put at a Kd of 4 nM. Moreover, at MLKL [2], the “Degradation assay (Degradation %) 1 μM” value came out at 79.05% and the “Degradation assay (Degradation %) 10 μM” value worked out at 58.33%.

As to `Nc1ncc(-c2cnn(C3CCN(CCCCCCNC(=O)CNc4cccc5c4C(=O)N(C4CCC(=O)NC4=O)C5=O)CC3)c2)nc1C(=O)O[C@@H](C(=O)Nc1ccc(F)cc1)c1ccccc1` (stereo partly drawn) [TDH-101, (R)-2-((4-fluorophenyl)amino)-2-oxo-1-phenylethyl 3-amino-6-(1-(1-(6-(2-((2-(2,6-dioxopiperidin-3-yl)-1,3-dioxoisoindolin-4-yl)amino)acetamido)hexyl)piperidin-4-yl)-1H-pyrazol-4-yl)pyrazine-2-carboxylate], in the experiment with FADD−/− Jurkat cells, the “Necroptosis inhibition assay (Rescue %) 1 μM” value worked out at 50.77% and the “Necroptosis inhibition assay (Rescue %) 10 μM” value is given as 18.45%. For the same compound, the Kd on MLKL [1] was 1.9 nM. Besides, on MLKL [2], the “Degradation assay (Degradation %) 1 μM” value is 35.85% and the “Degradation assay (Degradation %) 10 μM” value is reported as 29.42%.

As for `Nc1ncc(-c2cnn(C3CCN(C(=O)CC4CCN(C(=O)CNc5cccc6c5C(=O)N(C5CCC(=O)NC5=O)C6=O)CC4)CC3)c2)nc1C(=O)O[C@@H](C(=O)Nc1ccc(F)cc1)c1ccccc1` (stereo partly drawn) [TDH-339, (R)-2-((4-fluorophenyl)amino)-2-oxo-1-phenylethyl 3-amino-6-(1-(1-(2-(1-((2-(2,6-dioxopiperidin-3-yl)-1,3-dioxoisoindolin-4-yl)glycyl)piperidin-4-yl)acetyl)piperidin-4-yl)-1H-pyrazol-4-yl)pyrazine-2-carboxylate], in the experiment with FADD−/− Jurkat cells, the “Necroptosis inhibition assay (Rescue %) 1 μM” value was found to be 12.23% and the “Necroptosis inhibition assay (Rescue %) 10 μM” value is 12.31%. In addition, on MLKL [1], binding was characterised by a dissociation constant (Kd) of 13 nM. At MLKL [2], the “Degradation assay (Degradation %) 1 μM” value is 71.36% and the “Degradation assay (Degradation %) 10 μM” value turned out to be 51.92%.

On to `Nc1ncc(-c2cn(C3CCN(CC4CCN(c5ccc6c(c5)C(=O)N(C5CCC(=O)NC5=O)C6=O)CC4)CC3)nn2)nc1C(=O)OC(C(=O)Nc1ccc(F)cc1)c1ccccc1` (stereo not shown) [TDH-226, 2-((4-fluorophenyl)amino)-2-oxo-1-phenylethyl 3-amino-6-(1-(1-((1-(2-(2,6-dioxopiperidin-3-yl)-1,3-dioxoisoindolin-5-yl)piperidin-4-yl)methyl)piperidin-4-yl)-1H-1,2,3-triazol-4-yl)pyrazine-2-carboxylate], for which, in the experiment with FADD−/− Jurkat cells, the “Necroptosis inhibition assay (Rescue %) 1 μM” value is on record as 36.17% and the “Necroptosis inhibition assay (Rescue %) 10 μM” value was found to be 17.82%. Further, the dissociation constant Kd at MLKL [1] stood at 16 nM. Besides, the “Degradation assay (Degradation %) 10 μM” value at MLKL [2] worked out at 36.06%.

Turning to `Nc1ncc(-c2cnn(C3CCN(CC4CN(C(=O)CNc5ccc6c(c5)C(=O)N(C5CCC(=O)NC5=O)C6=O)CCO4)CC3)c2)nc1C(=O)OC(C(=O)Nc1ccc(F)cc1)c1ccccc1` (stereo not shown) [TDH-307, 2-((4-fluorophenyl)amino)-2-oxo-1-phenylethyl 3-amino-6-(1-(1-((4-((2-(2,6-dioxopiperidin-3-yl)-1,3-dioxoisoindolin-5-yl)glycyl)morpholin-2-yl)methyl)piperidin-4-yl)-1H-pyrazol-4-yl)pyrazine-2-carboxylate], in the experiment with FADD−/− Jurkat cells, the “Necroptosis inhibition assay (Rescue %) 1 μM” value was 83.43% and the “Necroptosis inhibition assay (Rescue %) 10 μM” value came to 73.58%. This compound also gave a Kd at MLKL [1] of 1.6 nM. For the same compound, on MLKL [2], the “Degradation assay (Degradation %) 1 μM” value is given as 57.38% and the “Degradation assay (Degradation %) 10 μM” value stood at 24.79%.

Consider `Nc1ncc(-c2cnn(C3CCN(CC4CCN(C(=O)C5CN(c6ccc7c(c6)C(=O)N(C6CCC(=O)NC6=O)C7=O)C5)CC4)CC3)c2)nc1C(=O)O[C@@H](C(=O)Nc1ccc(F)cc1)c1ccccc1` (stereo partly drawn) [TDH-145, (R)-2-((4-fluorophenyl)amino)-2-oxo-1-phenylethyl 3-amino-6-(1-(1-((1-(1-(2-(2,6-dioxopiperidin-3-yl)-1,3-dioxoisoindolin-5-yl)azetidine-3-carbonyl)piperidin-4-yl)methyl)piperidin-4-yl)-1H-pyrazol-4-yl)pyrazine-2-carboxylate], for which, in the experiment on FADD−/− Jurkat cells, the “Necroptosis inhibition assay (Rescue %) 1 μM” value worked out at 51.47% and the “Necroptosis inhibition assay (Rescue %) 10 μM” value is 40.41%. On MLKL [1], the Kd worked out at 2.5 nM. On MLKL [2], the “Degradation assay (Degradation %) 1 μM” value is 36.97% and the “Degradation assay (Degradation %) 10 μM” value is 55.66%.

For `Nc1ncc(-c2cnn(C3CCN(CC4CCN(C(=O)C5CCN(c6ccc7nnn(C8CCC(=O)NC8=O)c(=O)c7c6)CC5)CC4)CC3)c2)nc1C(=O)O[C@@H](C(=O)Nc1ccc(F)cc1)c1ccccc1` (stereo partly drawn) [TDH-151, (R)-2-((4-fluorophenyl)amino)-2-oxo-1-phenylethyl 3-amino-6-(1-(1-((1-(1-(3-(2,6-dioxopiperidin-3-yl)-4-oxo-3,4-dihydrobenzo[d][1,2,3]triazin-6-yl)piperidine-4-carbonyl)piperidin-4-yl)methyl)piperidin-4-yl)-1H-pyrazol-4-yl)pyrazine-2-carboxylate], in the experiment with FADD−/− Jurkat cells, the “Necroptosis inhibition assay (Rescue %) 1 μM” value was determined as 85.85% and the “Necroptosis inhibition assay (Rescue %) 10 μM” value stood at 60.12%. For the same compound, the Kd at MLKL [1] turned out to be 12 nM. Besides, on MLKL [2], the “Degradation assay (Degradation %) 1 μM” value came out at 84.58% and the “Degradation assay (Degradation %) 10 μM” value came to 77.74%.

As for `Nc1ncc(-c2cnn(C3CCN(CCC4CCN(C5CC6(CCN(C(=O)Cc7cccc(NC8=CC(=O)N(C9CCC(=O)NC9=O)C8=O)c7)CC6)C5)CC4)CC3)c2)nc1C(=O)O[C@@H](C(=O)Nc1ccc(F)cc1)c1ccccc1` (stereo partly drawn) [TDH-509, (R)-2-((4-fluorophenyl)amino)-2-oxo-1-phenylethyl 3-amino-6-(1-(1-(2-(1-(7-(2-(3-((1-(2,6-dioxopiperidin-3-yl)-2,5-dioxo-2,5-dihydro-1H-pyrrol-3-yl)amino)phenyl)acetyl)-7-azaspiro[3.5]nonan-2-yl)piperidin-4-yl)ethyl)piperidin-4-yl)-1H-pyrazol-4-yl)pyrazine-2-carboxylate], in the experiment on FADD−/− Jurkat cells (FADD−/− Jurkat cells), the “Necroptosis inhibition assay (Rescue %) 1 μM” value is 19.06% and the “Necroptosis inhibition assay (Rescue %) 10 μM” value amounted to 5.55%. At MLKL [1], the Kd worked out at 0.78 nM. Besides, on MLKL [2], the “Degradation assay (Degradation %) 1 μM” value is listed as 76.18% and the “Degradation assay (Degradation %) 10 μM” value came to 73.70%.

As for `Nc1ncc(-c2cnn(C3CN(CC4CCN(C(=O)COc5ccc6c(c5)C(=O)N(C5CCC(=O)NC5=O)C6=O)CC4)C3)c2)nc1C(=O)OC(C(=O)Nc1ccc(F)cc1)c1ccccc1` (stereo not shown) [TDH-299, 2-((4-fluorophenyl)amino)-2-oxo-1-phenylethyl 3-amino-6-(1-(1-((1-(2-((2-(2,6-dioxopiperidin-3-yl)-1,3-dioxoisoindolin-5-yl)oxy)acetyl)piperidin-4-yl)methyl)azetidin-3-yl)-1H-pyrazol-4-yl)pyrazine-2-carboxylate], in the experiment on FADD−/− Jurkat cells, the “Necroptosis inhibition assay (Rescue %) 1 μM” value amounted to 75.61% and the “Necroptosis inhibition assay (Rescue %) 10 μM” value is 62.7%. This compound also gave a Kd on MLKL [1] of 7.2 nM. At MLKL [2], the “Degradation assay (Degradation %) 1 μM” value amounted to 79.84% and the “Degradation assay (Degradation %) 10 μM” value is 89.54%.

In general, Kd refers to the constant that tells how readily two partners part at equilibrium. High values mean weaker binding, low ones tighter binding.
